Experimental data taken from patent US20150087604A1, “ANTI-FATTY ACID SYNTHASE POLYPEPTIDE AND USE THEREOF” (TIANJIN TOPTECH BIO-SCIENCE & TECHNOLOGY CO., LTD., priority 2011, published 2015).
“Also recorded” adds a separate entry of the source.

Legend:
NF-κB promoter = assay: Dual-luciferase reporter gene analysis, NF-κB promoter; assay type: cell-based; conditions: HepG2 cells; synthesized polypeptide 0.1 μM, 1 μM, 10 μM and 100 μM; 24 hr incubation
Source text: (§1) Hepatoma cell line HepG2 was adopted in the experiment. Because SREBP-1c is upstream transcription regulatory factor of FAS, whether there is inhibition of SREBP-1c promoter activity at the molecular level can be used to reflect the transcription state of FAS gene by reporter gene assays. Meanwhile, the detection of FAS promoter activity can directly reflect whether the transcription of FAS is inhibited or not. The nuclear factor κB (nuclear factor KB, NF-κB) is an import transcription factor, and increasing of NF-κB promoter activity indicates the increase of cell proliferation. Therefore, it can test the effects of the invention polypeptides on the proliferation of HepG2 cell by detection of NF-κB promoter activity and (3-(4,5-dimethylthiazol-2-yl)-2,5-diphenyltetrazolium bromide (MTT). […]
(7) Immediately put the EP tubes into a Luminometer (manufactured by Turner Biosystems). Within 10 sec after 2 sec balance, measured the luminescence.
(8) Added 100 μl fluorescence bleacher. […]
(9) Measured the luminescence within 10 sec.
The relative activity was the ratio of the value of the first luminescence to the value of the second luminescence.
Results shown are representative of three independent experiments according to Mean±SD, and statistical significance was calculated using Student's t test.

HepG2 cells [1] = assay: MTT assay of cell proliferation of hepatoma cells; assay type: cell-based; conditions: synthesized polypeptide 0.1 μM, 1 μM, 10 μM and 100 μM, 48 hr
Source text: as §1, with “proliferation.” for “proliferation. Therefore, it can test the effects of the invention polypeptides on the proliferation of HepG2 cell by detection of NF-κB promoter activity and (3-(4,5-dimethylthiazol-2-yl)-2,5-diphenyltetrazolium bromide (MTT).”
(2) Culture the cells: Within 12 hr for adhesion of cultured cells, different amount of polypeptides plasmids from Step A (0.25 μg, 0.5 μg and 0.75 μg) or different concentrations of synthesized polypeptides from Example 1 (0.1 μM, 1 μM, 10 μM and 100 μM) were transfected with 8 wells for each concentration, and were incubated for 48 hr in the same condition. 0.3 μg pEGFP-C2 plasmids and 1 μg p-Anti-HBxP1# were cotransfected, and using a fluorescence microscope to check for cells containing the GFP plasmid after 24 hr to make sure the percentage of cells that contain GFP is over 70%; […]
(5) Comparison: Read in an ELISA reader at 490 nm to measure the absorbance for each well. Results were calculated by using Student's t-test.

HepG2 cells [2] = assay: Inoculation experiment in nude mice (HepG2 tumor growth); assay type: in vivo; conditions: 10 mg/kg, once in two day, total 10 times
Protocol: (§2) Suspended the HepG2 cells at exponential phase by treating with trypsin, and counted the number of cells to dilute to 1×10^7 cells/ml with physiological saline, and then store in the ice water. 12 Mice used were 4- to 6-week-old BALB/C females, and were randomly divided into two groups: (1) Control group, injected 0.2 ml diluted cells to the armpit of left forelimb for each mouse, and only injected 0.5 ml ddH2O (without polypeptide drugs); (2) experimental group (the treatment dose was 10 mg/kg), injected 0.2 ml diluted cells to the armpit of left forelimb for each mouse, and within 7 days after the injection, tumor volume (V=L×W^2×0.5) reached to 100 mm^3. And then, injected the above mentioned polypeptide drugs (dried polypeptide drug solved in 0.5 ml ddH2O) once in two day, total 10 times, and recorded the tumor volume before injection. Within 24 hr after the last dose, weighted the mice, and killed the mice to weight the tumor tissue, anti-tumor rate was calculated as follow: […]

[3] = Weight of nude mice in the inoculation experiment; assay type: in vivo
Protocol: as §2

[4] = Polypeptide drugs acute toxicity test; assay type: in vivo, Kunming white mice; conditions: 1 g/kg tail intravenous injection; observed 24 hr
Protocol: Control group and experimental group contained 10 Kunming white mice, with 5 females and 5 males, respectively. Experimental group injected Anti-FAS-P18 with the concentration of 1 g/kg (2.5 mg dried polypeptide drug solved in 0.125 ml ddH2O) by tail intravenous injection; control group, injected 0.25 ml ddH2O. Consecutively observed the mice for 24 hr after injection.

Gly-Gly-Cys-Arg-His-Lys-Leu-Val-Cys-Ala-Pro-Ala-Pro-Cys-Asn-Phe-Phe-Thr [Anti-FAS-P18]
activity of NF-κB promoter (NF-κB promoter): inhibits the activity of NF-κB promoter in HepG2 cells in a dose-dependent manner | cell proliferation (MTT) (HepG2 cells [1]): inhibits cell proliferation in the HepG2 cells in a dose-dependent manner | growth and proliferation of HepG2 cells in nude mice (HepG2 cells [2]): inhibits the growth and proliferation in the HepG2 cells; also recorded: inhibits the growth and proliferation of the HepG2 cells | Anti-tumor rate (%) (HepG2 cells [2]; from tumor weight vs control): 43.06% | Tumor Weight (X ± S, g) (HepG2 cells [2]; within 24 hr after the last dose): 0.42 ± 0.09 g | impact on the weight of nude mice ([3]; 10 mg/kg, once in two day, total 10 times): no significantly impact on the weight of nude mice | Weight (X ± S, g) After dose ([3]; body weight of mice after dose, 10 mg/kg, once in two day, total 10 times): 21.83 ± 0.82 g | Weight (X ± S, g) Before dose ([3]; body weight of mice before dose, experimental group 10 mg/kg): 15.33 ± 0.75 g | abnormal behaviors after injection [4]: do not have abnormal behaviors | changes in weight compared with control group [4]: no abnormal changes in weight compared with control group
